Experiment: Biodistribution of the 99mTc(N) heterocomplexes in rats (organ uptake, heart accumulation, heart/lung and heart/liver ratios)
Format: in vivo, female Sprague-Dawley rats
Conditions: rats
Description: The biodistribution was measured by using female Sprague-Dawley rats (SD rats) weighing 200 g to 250 g. Each of the ^99mTc(N) heterocomplexes purified in the manner described above was diluted with phosphate buffer (0.1 M, pH=7.4) to obtain a final solution having an ethanol content of 10%. After the SD rats were anesthetized with an intramuscular injection of a mixture of ketamine (80 mg/kg) and xilazine (19 mg/kg), the jugular vein of each rat was surgically exposed and 100 μL (300 to 370 kBq) of the solution containing each ^99mTc(N) heterocomplexes prepared in the manner described above was injected in the jugular vein. The rats (n=3) were sacrificed by cervical dislocation at different times post injection. The blood was withdrawn from the heart through a syringe and counted. It was assumed that the whole blood content was 6.5% of the total body weight. The organs were excised from the rats, washed with physiological saline, weighed, and counted in a NaI well counter.
For comparison, Tables 19 and 20 show the results, obtained in the same manner as above, of measuring the biodistribution of (^99mTc) (MIBI) and (^99mTc) (Tf) which have been used as pharmaceuticals for diagnostic imaging for blood flow in myocardium.
Tables 21 to 23 show data showing the variations with time of heart accumulation, heart/lung ratios and heart/liver ratios for the ^99mTc(N) heterocomplexes of the present invention.

Row | Heart/liver ratio in biodistribution (0 min) | Heart/lung ratio in biodistribution (0 min) | Heart/liver ratio in biodistribution (2 min) | Heart/lung ratio in biodistribution (2 min) | Heart/liver ratio in biodistribution (10 min) | Heart/lung ratio in biodistribution (10 min) | Heart/liver ratio in biodistribution (20 min) | Heart/lung ratio in biodistribution (20 min) | Heart/liver ratio in biodistribution (30 min) | Heart/lung ratio in biodistribution (30 min) | Heart/liver ratio in biodistribution (60 min) | Heart/lung ratio in biodistribution (60 min) | Heart/liver ratio in biodistribution (120 min) | Heart accumulation (0 min) [% ID/g] | Heart accumulation (2 min) [% ID/g] | Heart accumulation (10 min) [% ID/g] | Heart accumulation (20 min) [% ID/g] | Heart accumulation (30 min) [% ID/g] | Heart accumulation (60 min) [% ID/g] | Heart accumulation (120 min) [% ID/g] | Compound | also measured
1 | 3.53 | 1.37 | 0.83 | 3.15 | 1.90 | 3.99 | 2.62 | 5.72 | 2.33 | 5.49 | 6.37 | 7.83 | 10.61 |  |  |  |  |  |  |  | CCOCCN1CC[P](CCCOC)(CCCOC)[99Tc+]2(#[N])([S]C(N(CCOCC)C(C)C)=[S]2)[P](CCCOC)(CCCOC)CC1 [[^99mTc(N) (PNP5) (ISOET)^+]] | Heart/lung ratio in biodistribution (120 min): 11.09
2 | 0.63 | 0.58 | 0.21 | 0.99 | 0.18 | 1.26 | 0.18 | 1.48 | 0.23 | 1.75 | 0.31 | 2.29 | 0.51 |  |  |  |  |  |  |  | CCOCCC[P]1(CCCOCC)CCN(CCOCC)CC[P](CCCOCC)(CCCOCC)[99Tc+]12(#[N])[S]C(N(CCOCC)CCOCC)=[S]2 [[^99mTc(N) (PNP6) (DBODC)^+]] | Heart/lung ratio in biodistribution (120 min): 3.91
3 | 2.45 | 2.32 | 1.99 | 3.39 | 2.55 | 4.74 | 3.82 | 3.95 | 7.79 | 4.74 | 20.44 | 9.60 | 25.01 | 3.57 ± 0.14 | 3.42 ± 0.19 | 3.65 ± 0.56 | 3.32 ± 0.18 | 3.27 ± 0.36 | 3.27 ± 0.62 | 3.00 ± 0.42 | CCOCCN(CCOCC)C1=[S][99Tc+]2(#[N])([S]1)[P](CCCOC)(CCCOC)CCN(CCOC)CC[P]2(CCCOC)CCCOC [[^99m−Tc(N) (PNP3) (DBODC)^+]] | Heart/lung ratio in biodistribution (120 min): 11.10
4 | 0.89 | 2.12 | 0.56 | 3.17 | 0.68 | 3.54 | 1.34 | 5.79 | 1.98 | 6.27 | 5.38 | 8.37 | 15.31 | 3.08 ± 0.31 | 2.06 ± 0.13 | 2.37 ± 0.33 | 2.49 ± 0.31 | 2.57 ± 0.06 | 2.26 ± 0.06 | 2.45 ± 0.41 | COCCC[P]1(CCCOC)CCN(CCOC)CC[P](CCCOC)(CCCOC)[99Tc+]12(#[N])[S]C(N(CCOC)CCOC)=[S]2 [[^99m−Tc(N) (PNP3) (DPODC)^+]] | Heart/lung ratio in biodistribution (120 min): 12.25
5 |  |  |  |  |  |  |  |  |  |  |  |  |  | 5.01 ± 0.16 | 3.94 ± 0.32 | 3.69 ± 0.29 | 3.63 ± 0.46 | 3.73 ± 0.48 | 3.76 ± 0.39 | 3.31 ± 0.06 | CCOCCN1CC[P](CCCOC)(CCCOC)[99Tc+]2(#[N])([S]C(N(CCOCC)CCOCC)=[S]2)[P](CCCOC)(CCCOC)CC1 [[^99m−Tc(N) (PNP5) (DBODC)^+]] | 
6 |  |  |  |  |  |  |  |  |  |  |  |  |  | 3.35 ± 0.51 | 2.33 ± 0.17 | 2.91 ± 0.36 | 2.86 ± 0.07 | 2.47 ± 0.49 | 2.74 ± 0.19 | 2.44 ± 0.05 | CCOCCN1CC[P](CCCOC)(CCCOC)[99Tc+]2(#[N])([S]C(N(CCOCC)C(C)C)=[S]2)[P](CCCOC)(CCCOC)CC1 [[^99m−Tc(N) (PNP5) (ISOET)^+]] | 
7 |  |  |  |  |  |  |  |  |  |  |  |  |  | 2.26 ± 0.82 | 1.24 ± 0.14 | 1.39 ± 0.30 | 1.18 ± 0.18 | 1.05 ± 0.19 | 1.10 ± 0.11 | 1.29 ± 0.16 | CCOCCC[P]1(CCCOCC)CCN(CCOCC)CC[P](CCCOCC)(CCCOCC)[99Tc+]12(#[N])[S]C(N(CCOCC)CCOCC)=[S]2 [[^99m−Tc(N) (PNP6) (DBODC)^+]] | 
